Legend:
[1] = target: hKv1.5 (Homo sapiens, UniProt P22460); experiment: Kv1.5 Autopatch electrophysiology (whole cell patch-clamp); format: cell-based; details: compound at 1 μM; room temperature (22-24° C.); total charge during step to 0 mV; read-out: hKv1.5 % inh.
Experimental: Kv1.5 Autopatch Electrophysiology Method
The external bathing solution contained (in mM): 150 NaCl, 10 KCl, […], 3 MgCl2, 1 CaCl2, 10 HEPES, pH 7.4. Patch pipettes were filled with an electrode solution of composition (in mM): 160 KCl, 0.5 MgCl2, 10 HEPES, 1 EGTA, pH 7.4 with KOH.
Compounds were dissolved in DMSO (100%) and made up in the external bather at a concentration of 1 μM. All experiments were conducted at room temperature (22-24° C.).
A cell suspension (10 ml), with a density of 100,000 cells/ml, was aliquoted into a 15 ml centrifuge tube and transferred to an incubator (37° C., 5% CO2) for approximately one hour before use. Following 60 min incubation, a tube was taken and centrifuged at 1000 rpm for 4 mins at room temperature. 9.5 ml supernatant was thence discarded, leaving a cell pellet at the bottom of the tube. The pellet was then resuspended using 100 μl of cold (4° C.), filtered (0.22 μm), 0.2% BSA/bather solution (0.02 g BSA/10 ml bather). The bottom of the tube was manually agitated gently until the solution became cloudy with cells. The 100 μl cell resuspension solution was then stored on the bench at 4° C. (using a Peltier-based temperature control device) until used.
A length of capillary glass (1B150F-4, WPI) was dipped into the cell suspension solution, such that ˜3 cm column of fluid was taken up by capillary action. A Ag/AgCl wire was dropped into the non-dipped end of the capillary also. The outside of the solution-filled end of the capillary was then dried and the capillary was loaded into the AutoPatch™.
Borosilicate glass patch pipettes (from 1.5 mm OD, thin-walled filamented, GC150-TF capillary glass, Harvard) were pulled using a DMZ pipette puller (Zeitz Instruments), and were back-filled using the internal pipette solution, being careful that no bubbles remain at the tip or in the body of the pipette. Patch pipettes typically had resistances of 2.3-3.5 MΩ. Once filled, the pipette tip and a proportion of the shaft (˜15 mm) were dipped into Sigmacote (Sigma). The recording pipette was then loaded into the AutoPatch™ Automated patch-clamping was initiated by the operator, but thereafter AutoPatch.exe continued the experiment providing that pre-set conditions and criteria were satisfied.
Whole cell patch-clamp recordings were made using the AutoPatch™ rig, which incorporated an EPC9 amplifier (HEKA, Germany) under control of Pulse software (v8.54, HEKA, Germany), a motion controller with 2 translators (Newport, UK), valve controller (VF1) and a c-level suction device all at room temperature (22-24° C.). This equipment was completely under the control of AutoPatch.exe and operator intervention was only made when there was a requirement to refill the drug reservoirs or to prevent the loss of a cell due to a technical error. Cells with an Rseries greater than 18 MΩ were discounted from the experiment.
Qualification stages prior to perfusion and drug application ensured that the observed current met the criteria for the experiment. Only those cells with an IK>500 pA were used for experiments. Cells were continuously perfused with external solution at a flow rate of 1.8-2 ml/minute. […] Online analysis of the hKv1.5 current during the application of compounds was performed by the AutoPatch™ software. Voltage-step protocols and analysis of data was performed as described for conventional electrophysiology.
Electrophysiology voltage-step protocols and analysis of data was performed as follows. Data was sampled at 5 kHz, and filtered with a −3 dB bandwidth of 2.5 kHz. Cells were held at a voltage of −80 mV. Currents were evoked to a voltage step for 1000 ms in duration at 0 mV every 5 s. Currents were analysed using Pulsefit software (v8.54, HEKA, Germany), with the total charge measured during the whole of the voltage step. All other plots were produced using Igor Pro (WaveMetrics).

[2] = target: T1, human Kv1.3 (Homo sapiens, UniProt P22001); experiment: Kv1.3 Autopatch electrophysiology (whole cell patch-clamp, inhibition of charge movement); format: cell-based; details: compound at 1 μM; cells stably transfected with human Kv1.3; room temperature; total charge during step to +30 mV relative to control; read-out: hKv1.3 % inh.
T1 construct: expressed in transfected cells; host or cells: stably transfected cells grown in medium for CHO cells
T1 sequence (P22001 whole entry): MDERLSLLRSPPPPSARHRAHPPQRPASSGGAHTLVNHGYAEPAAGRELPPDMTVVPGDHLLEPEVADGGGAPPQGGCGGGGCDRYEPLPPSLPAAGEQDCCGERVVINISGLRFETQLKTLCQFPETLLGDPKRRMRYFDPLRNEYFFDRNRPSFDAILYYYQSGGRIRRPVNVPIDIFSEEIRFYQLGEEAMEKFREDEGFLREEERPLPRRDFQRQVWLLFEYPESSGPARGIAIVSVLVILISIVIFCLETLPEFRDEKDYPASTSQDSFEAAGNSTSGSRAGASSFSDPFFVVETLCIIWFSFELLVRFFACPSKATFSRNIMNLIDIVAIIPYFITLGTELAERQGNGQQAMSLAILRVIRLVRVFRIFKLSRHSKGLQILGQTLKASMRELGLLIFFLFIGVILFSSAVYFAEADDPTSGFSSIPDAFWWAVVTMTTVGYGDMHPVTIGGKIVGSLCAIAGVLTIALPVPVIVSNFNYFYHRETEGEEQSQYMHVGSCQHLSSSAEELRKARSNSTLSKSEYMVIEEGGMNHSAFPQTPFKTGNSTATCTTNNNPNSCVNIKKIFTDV
Outline: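 Whole-cell AutoPatch recordings were made at room temperature from cells held at −80 mV, with 500 ms steps to +30 mV every 15 s. The bath contained 10 mM KCl, pH 7.4, and the pipette K-gluconate/EGTA, pH 7.2.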

Sequence of hKv1.5 (P22460 whole entry): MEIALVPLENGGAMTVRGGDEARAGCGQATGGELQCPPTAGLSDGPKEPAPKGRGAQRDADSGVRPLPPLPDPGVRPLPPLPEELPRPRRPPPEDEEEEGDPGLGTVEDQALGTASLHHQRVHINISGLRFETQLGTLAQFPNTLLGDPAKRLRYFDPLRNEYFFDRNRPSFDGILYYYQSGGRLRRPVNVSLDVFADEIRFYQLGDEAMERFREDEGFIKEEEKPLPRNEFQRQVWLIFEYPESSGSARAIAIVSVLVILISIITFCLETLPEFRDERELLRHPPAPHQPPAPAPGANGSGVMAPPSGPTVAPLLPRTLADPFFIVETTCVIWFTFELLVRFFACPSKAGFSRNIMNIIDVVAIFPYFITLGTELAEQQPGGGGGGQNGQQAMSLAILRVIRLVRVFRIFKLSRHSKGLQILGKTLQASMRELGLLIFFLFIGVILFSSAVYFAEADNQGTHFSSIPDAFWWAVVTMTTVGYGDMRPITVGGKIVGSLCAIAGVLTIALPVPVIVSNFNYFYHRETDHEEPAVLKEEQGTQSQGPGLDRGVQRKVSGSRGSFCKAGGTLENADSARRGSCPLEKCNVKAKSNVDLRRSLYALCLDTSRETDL

| SMILES | inhibition at 1 µM [1] [%] | inhibition at 1 µM [2] [%] |
| --- | --- | --- |
| CCc1ccc(S(=O)(=O)N(Cc2ccccc2)c2ccc(C(=O)N3CCN(c4ccccc4)CC3)cc2)cc1 [Example 42, N-Benzyl-4-ethyl-N-[4-(4-phenyl-piperazine-1-carbonyl)-phenyl]-benzenesulfonamide] | 66.4 | 76 |
| O=C(c1ccc(N(Cc2ccccc2)S(=O)(=O)c2ccccc2)cc1)N1CCC(O)(Cc2ccccc2)CC1 [Example 59, N-Benzyl-N-[4-(4-benzyl-4-hydroxy-piperidine-1-carbonyl)-phenyl]-benzenesulfonamide] | 40.1 | 87 |
| O=C(c1ccc(N(Cc2ccccc2)S(=O)(=O)c2ccc([N+](=O)[O-])cc2)cc1)N1CCN(c2ccccc2)CC1 [Example 40, N-Benzyl-4-nitro-N-[4-(4-phenyl-piperazine-1-carbonyl)-phenyl]-benzenesulfonamide] | 62.4 | 62 |
| Cn1cnc(S(=O)(=O)N(Cc2cccc(F)c2)c2ccc(C(=O)N3CCN(c4ccccc4)CC3)cc2)c1 [Example 44, 1-Methyl-1H-imidazole-4-sulfonic acid (3-fluoro-benzyl)-[4-(4-phenyl-piperazine-1-carbonyl)-phenyl]-amide] | 43.6 | 76 |
| N#Cc1ccccc1S(=O)(=O)N(Cc1ccccc1)c1ccc(C(=O)N2CCN(c3ccccc3)CC2)cc1 [Example 24, N-Benzyl-2-cyano-N-[4-(4-phenyl-piperazine-1-carbonyl)-phenyl]-benzenesulfonamide] | 71.9 | 84 |
| O=C(c1ccc(N(Cc2ccccc2)S(=O)(=O)c2cc(Cl)cc(Cl)c2)cc1)N1CCN(c2ccccc2)CC1 [Example 29, N-Benzyl-3,5-dichloro-N-[4-(4-phenyl-piperazine-1-carbonyl)-phenyl]-benzenesulfonamide] | 75.3 | 70 |
| N#Cc1cccc(S(=O)(=O)N(Cc2ccccc2)c2ccc(C(=O)N3CCN(c4ccccc4)CC3)cc2)c1 [Example 23, N-Benzyl-3-cyano-N-[4-(4-phenyl-piperazine-1-carbonyl)-phenyl]-benzenesulfonamide] | 93.1 | 79 |
| Cn1cnc(S(=O)(=O)N(Cc2ccc(Cl)cc2)c2ccc(C(=O)N3CCCC(Oc4ccccc4)C3)cc2)c1 (stereo not shown) [Example 62, 1-Methyl-1H-imidazole-4-sulfonic acid (4-chloro-benzyl)-[4-(3-phenoxy-piperidine-1-carbonyl)-phenyl]-amide] | 52.4 | 64 |
| O=C(c1ccc(N(Cc2ccc(Cl)cc2)S(=O)(=O)c2ccccc2)cc1)N1CCN(c2ccccc2)CC1 [Example 1, N-(4-Chloro-benzyl)-N-[4-(4-phenyl-piperazine-1-carbonyl)-phenyl]-benzenesulfonamide] | 94 | 91 |
| Cn1nccc1S(=O)(=O)N(Cc1ccccc1)c1ccc(C(=O)N2CCOC(c3ccccc3)C2)cc1 (stereo not shown) [Example 85, 2-Methyl-2H-pyrazole-3-sulfonic acid benzyl-[4-(2-phenyl-morpholine-4-carbonyl)-phenyl]-amide] | 47 | 94 |
| Cn1cnc(S(=O)(=O)N(Cc2ccccc2)c2ccc(C(=O)N3CCN(c4ccccc4)CC3)cc2F)c1 [Example 50, 1-Methyl-1H-imidazole-4-sulfonic acid benzyl-[2-fluoro-4-(4-phenyl-piperazine-1-carbonyl)-phenyl]-amide] | 56.8 | 69 |
| Cc1ccccc1S(=O)(=O)N(Cc1ccccc1)c1ccc(C(=O)N2CCN(c3ccccc3)CC2)cc1 [Example 26, N-Benzyl-2-methyl-N-[4-(4-phenyl-piperazine-1-carbonyl)-phenyl]-benzenesulfonamide] | 85.5 | 82 |
| O=C(c1ccc(N(Cc2ccccc2)S(=O)(=O)c2cccc(F)c2)cc1)N1CCN(c2ccccc2)CC1 [Example 21, N-Benzyl-3-fluoro-N-[4-(4-phenyl-piperazine-1-carbonyl)-phenyl]-benzenesulfonamide] | 70.9 | 70 |
| O=C(c1ccc(N(Cc2ccccc2)S(=O)(=O)c2ccccc2)c(F)c1)N1CCN(c2ccccc2)CC1 [Example 53, N-Benzyl-N-[2-fluoro-4-(4-phenyl-piperazine-1-carbonyl)-phenyl]-benzenesulfonamide] | 93.8 | 42 |
| COc1cccc(CN(c2ccc(C(=O)N3CCN(c4ccccc4)CC3)cc2)S(=O)(=O)c2ccccc2)c1 [Example 33, N-(3-Methoxy-benzyl)-N-[4-(4-phenyl-piperazine-1-carbonyl)-phenyl]-benzenesulfonamide] | 55.7 | 56 |
| O=C(c1ccc(N(Cc2ccccc2Cl)S(=O)(=O)c2ccccc2)cc1)N1CCN(c2ccccc2)CC1 [Example 10, N-(2-Chloro-benzyl)-N-[4-(4-phenyl-piperazine-1-carbonyl)-phenyl]-benzenesulfonamide] | 47.9 | 86 |
| O=C(c1ccc(N(Cc2ccccc2)S(=O)(=O)c2ccccc2F)cc1)N1CCN(c2ccccc2)CC1 [Example 20, N-Benzyl-2-fluoro-N-[4-(4-phenyl-piperazine-1-carbonyl)-phenyl]-benzenesulfonamide] | 88.8 | 82 |
| COc1cccc(CN(c2ccc(C(=O)N3CCN(c4ccccc4)CC3)cc2)S(=O)(=O)c2ccccc2)c1OC [Example 51, N-(2,3-Dimethoxy-benzyl)-N-[4-(4-phenyl-piperazine-1-carbonyl)-phenyl]-benzenesulfonamide] | 57.5 | 42 |
| O=C(c1ccc(N(Cc2ccc(Cl)cc2)S(=O)(=O)c2cccnc2)cc1)N1CCCCC1 [Example 87, Pyridine-3-sulfonic acid (4-chloro-benzyl)-[4-(piperidine-1-carbonyl)-phenyl]-amide] | 56 | 62 |
| O=C(c1ccc(N(Cc2ccccc2)S(=O)(=O)c2ccsc2)cc1)N1CCN(c2ccccc2)CC1 [Example 18, Thiophene-3-sulfonic acid benzyl-[4-(4-phenyl-piperazine-1-carbonyl)-phenyl]-amide] | 82.9 | 80 |
| Cn1cnc(S(=O)(=O)N(Cc2ccccc2)c2ccc(C(=O)N3CCN(c4ccccc4)CC3)cc2)c1 [Example 25, 1-Methyl-1H-imidazole-4-sulfonic acid benzyl-[4-(4-phenyl-piperazine-1-carbonyl)-phenyl]-amide] | 58.8 | 68 |
| O=C(c1ccc(N(Cc2ccccc2)S(=O)(=O)c2ccccc2)cc1)N1CCc2ccccc2C1 [Example 55, N-Benzyl-N-[4-(3,4-dihydro-1H-isoquinoline-2-carbonyl)-phenyl]-benzenesulfonamide] | 50.1 | 81 |
| Cc1ccc(CN(c2ccc(C(=O)N3CCN(c4ccccc4)CC3)cc2)S(=O)(=O)c2cn(C)cn2)cc1 [Example 43, 1-Methyl-1H-imidazole-4-sulfonic acid (4-methyl-benzyl)-[4-(4-phenyl-piperazine-1-carbonyl)-phenyl]-amide] | 46.4 | 78 |
